Measurements taken from patent US20070249670A1, “Glycogen Phosphorylase Inhibitor Compounds and Pharmaceutical Compositions Thereof” (SMITHKLINE BEECHAM CORPORATION, priority 2004, published 2007).

These compounds were tested against T1, human liver glycogen phosphorylase a (HLGPa) (Homo sapiens, UniProt P06737) (assay: Human liver glycogen phosphorylase a enzymatic activity assay (coupled, fluorescent resorufin readout, with and without 10 mM glucose)). Conditions: human liver glycogen phosphorylase a enzymatic activity assay.
T1 construct: creating a full-length cDNA fused at the 5′ end to codons for methionine-glycine-alanine-histidine; 6xHis tag (leader Met-Gly-Ala-His6-Gly-Gly) (N); made in house; host or cells: E. coli (bacterial expression plasmid pTXK1007LTev)
T1 sequence (P06737 2-847 limits assumed): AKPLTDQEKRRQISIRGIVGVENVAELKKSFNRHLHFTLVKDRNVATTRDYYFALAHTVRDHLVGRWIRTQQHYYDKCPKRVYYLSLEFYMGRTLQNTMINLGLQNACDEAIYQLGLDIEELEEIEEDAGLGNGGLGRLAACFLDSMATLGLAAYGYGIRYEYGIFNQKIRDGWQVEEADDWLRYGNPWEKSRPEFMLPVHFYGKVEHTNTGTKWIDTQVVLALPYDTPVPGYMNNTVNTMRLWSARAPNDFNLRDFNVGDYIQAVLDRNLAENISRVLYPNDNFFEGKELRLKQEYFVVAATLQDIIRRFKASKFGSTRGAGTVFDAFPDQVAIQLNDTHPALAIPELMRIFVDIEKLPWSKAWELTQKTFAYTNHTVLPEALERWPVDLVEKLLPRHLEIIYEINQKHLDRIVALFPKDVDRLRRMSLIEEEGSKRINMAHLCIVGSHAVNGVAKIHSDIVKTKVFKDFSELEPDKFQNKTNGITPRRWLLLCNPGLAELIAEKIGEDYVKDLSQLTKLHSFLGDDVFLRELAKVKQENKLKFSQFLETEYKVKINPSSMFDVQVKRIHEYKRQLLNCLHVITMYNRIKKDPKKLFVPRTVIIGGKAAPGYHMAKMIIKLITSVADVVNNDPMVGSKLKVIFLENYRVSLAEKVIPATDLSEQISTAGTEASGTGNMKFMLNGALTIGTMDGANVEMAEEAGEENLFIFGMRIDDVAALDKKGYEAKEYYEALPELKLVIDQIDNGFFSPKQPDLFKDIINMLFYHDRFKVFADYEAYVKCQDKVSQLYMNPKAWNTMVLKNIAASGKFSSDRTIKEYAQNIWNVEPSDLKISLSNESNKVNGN
Assay type: biochemical

| Compound | IC50 [nM] |
| --- | --- |
| Cc1ccccc1NC(=O)Nc1cc2ccccc2cc1C(=O)N[C@@H](CC(N)=O)C(=O)O [Example 17, N-[3-({[(2-methylphenyl)amino]carbonyl}amino)-2-naphthoyl]-L-asparagine] | 4720 |
| Cc1cccc(Cl)c1NC(=O)Nc1cc2ccccc2cc1C(=O)N[C@@H](CC(=O)O)C(=O)O [Example 84, N-[3-({[(2-chloro-6-methylphenyl)amino]carbonyl}amino)-2-naphthoyl]-L-aspartic acid] | 390 |
| O=C(O)C[C@H](NC(=O)c1cc2ccccc2cc1NC(=O)Nc1c(F)cccc1F)C(=O)O [Example 149, N-{[3-({[(2,6-difluorophenyl)amino]carbonyl}amino)-2-naphthalenyl]carbonyl}-L-aspartic acid] | 5020 |
| COc1ccc(-c2cc(NC(=O)Nc3c(C)cc(C)cc3C)c(C(=O)NC3(C(=O)O)CCCCC3)s2)cc1 [Example 452, 1-({[5-[4-(methyloxy)phenyl]-3-({[(2,4,6-trimethylphenyl)amino]carbonyl}amino)-2-thienyl]carbonyl}amino)cyclohexanecarboxylic acid] | 3 |
| Cc1ccccc1NC(=O)Nc1cc2ccccc2cc1C(=O)N[C@@H](Cc1cccs1)C(=O)O [Example 96, N-{[3-({[(2-methylphenyl)amino]carbonyl}amino)-2-naphthalenyl]carbonyl}-3-(2-thienyl)-L-alanine] | 5070 |
| Cc1cccc(Cl)c1NC(=O)Nc1cc2ccccc2cc1C(=O)N1CCC[C@H]1C(=O)O [Example 35, 1-[3-({[(2-chloro-6-methylphenyl)amino]carbonyl}amino)-2-naphthoyl]-L-proline] | 580 |
| COc1ccc(-c2cc(NC(=O)Nc3c(C)cc(C)cc3C)c(C(=O)N[C@H](C(=O)O)[C@@H](C)OC(C)(C)C)s2)cc1 [Example 446, O-(1,1-dimethylethyl)-N-{[5-[4-(methyloxy)phenyl]-3-({[(2,4,6-trimethylphenyl)amino]carbonyl}amino)-2-thienyl]carbonyl}-L-threonine] | 31 |
| Cc1cc(C)c(NC(=O)Nc2cc(-c3ccc(F)c(F)c3)ccc2C(=O)N[C@@H](COCc2ccccc2)C(=O)O)c(C)c1 [Example 510, N-{[3′,4′-Difluoro-3-({[(2,4,6-trimethylphenyl)amino]carbonyl}amino)-4-biphenylyl]carbonyl}-O-(phenylmethyl)-L-serine] | 42 |
| Cc1ccccc1NC(=O)Nc1cc2ccccc2cc1C(=O)N[C@@H](C)C(=O)O [Example 13, N-[3-({[(2-methylphenyl)amino]carbonyl}amino)-2-naphthoyl]-L-alanine] | 15500 |
| Cc1cccc(C)c1NC(=O)Nc1sc2c(c1C(=O)N[C@H](C(=O)O)C1CCCCC1)CCCC2 [Example 138, (2S)-cyclohexyl({[2-({[(2,6-dimethylphenyl)amino]carbonyl}amino)-4,5,6,7-tetrahydro-1-benzothien-3-yl]carbonyl}amino)acetic acid] | 5560 |
| Cc1cccc(C)c1NC(=O)Nc1cc2ccccc2cc1C(=O)NCCC(=O)O [Example 163, N-[3-({[(2,6-dimethylphenyl)amino]carbonyl}amino)-2-naphthoyl]-beta-alanine] | 509 |
| Cc1cccc(C)c1NC(=O)Nc1cc2ccccc2cc1C(=O)N[C@@H](Cc1ccc(O)cc1)C(=O)O [Example 53, N-[3-({[(2,6-dimethylphenyl)amino]carbonyl}amino)-2-naphthoyl]-L-tyrosine] | 360 |
| COC(=O)[C@H](CC(=O)N(C)C)NC(=O)c1ccc(-c2ccc(OC)cc2)cc1NC(=O)Nc1c(C)cc(C)cc1C [Example 503, methyl N^4,N^4-dimethyl-N^2-{[4′-(methyloxy)-3-({[(2,4,6-trimethylphenyl)amino]carbonyl}amino)-4-biphenylyl]carbonyl}-L-asparaginate] | 11100 |
| Cc1cccc(C)c1NC(=O)Nc1cc2ccccc2cc1C(=O)N[C@@H](CC(C)C)C(=O)O [Example 24, N-[3-({[(2,6-dimethylphenyl)amino]carbonyl}amino)-2-naphthoyl]-L-leucine] | 1190 |

The remaining lines, values ahead:

| IC50 [nM] | Compound |
| --- | --- |
| 5 | Cc1cc(C)c(NC(=O)Nc2cc(-c3cc(F)cc(F)c3)ccc2C(=O)N[C@H](C(=O)O)C2CCCCC2)c(C)c1 [Example 526, (2S)-Cyclohexyl({[3′,5′-difluoro-3-({[(2,4,6-trimethylphenyl)amino]carbonyl}amino)-4-biphenylyl]carbonyl}amino)ethanoic acid] |
| 74 | Cc1cccc(C)c1NC(=O)Nc1cc(-c2ccc(F)c(F)c2)ccc1C(=O)N[C@H](C(=O)O)C1CCCCC1 [Example 188, (2S)-Cyclohexyl({[3-({[(2,6-dimethylphenyl)amino]carbonyl}amino)-3′,4′-difluoro-4-biphenylyl]carbonyl}amino)ethanoic acid] |
| 750 | Cc1ccc(C(=O)N[C@H](C(=O)O)C2CCCCC2)c(NC(=O)Nc2c(C)cccc2C)c1 [Example 176, (2S)-cyclohexyl({[2-({[(2,6-dimethylphenyl)amino]carbonyl}amino)-4-methylphenyl]carbonyl}amino)ethanoic acid] |
| 51 | CCc1cc(C)c(NC(=O)Nc2cc(F)ccc2C(=O)N[C@H](C(=O)O)C2CCCCC2)c(C)c1 [Example 475, (2S)-cyclohexyl({[2-({[(4-ethyl-2,6-dimethylphenyl)amino]carbonyl}amino)-4-fluorophenyl]carbonyl}amino)ethanoic acid] |
| 17 | Cc1cc(C)c(NC(=O)Nc2cc(-c3ccccc3)ccc2C(=O)N[C@H](C(=O)O)C2CCCCC2)c(C)c1 [Example 182, (2S)-Cyclohexyl({[3-({[(2,4,6-trimethylphenyl)amino]carbonyl}-amino)-4-biphenylyl]carbonyl}amino)ethanoic acid] |
| 86 | O=C(Nc1cc2ccccc2cc1C(=O)N[C@H](C(=O)O)C1CCCCC1)Nc1c(Cl)cc(F)cc1Cl [Example 455, (2S)-cyclohexyl({[3-({[(2,6-dichloro-4-fluorophenyl)amino]carbonyl}amino)-2-naphthalenyl]carbonyl}amino)ethanoic acid] |
| 640 | Cc1cccc(Cl)c1NC(=O)Nc1cc2ccccc2cc1C(=O)N[C@@H](CO)C(=O)O [Example 34, N-[3-({[(2-chloro-6-methylphenyl)amino]carbonyl}amino)-2-naphthoyl]-L-serine] |

Same assay, conditions: human liver glycogen phosphorylase a; table does not say whether with or without 10 mM glucose

| Compound | IC50 [nM] |
| --- | --- |
| CCCCN1CCC(NC(=O)c2cc3ccccc3cc2NC(=O)Nc2c(C)cc(C)cc2C)(C(=O)O)CC1 [Example 289, 1-Butyl-4-({[3-({[(2,4,6-trimethylphenyl)amino]carbonyl}amino)-2-naphthalenyl]carbonyl}amino)-4-piperidinecarboxylic acid] | 4390 |
| Cc1cccc(C)c1NC(=O)Nc1cc2ccccc2cc1C(=O)N(CC(=O)O)Cc1ccccn1 [Example 241, N-{[3-({[(2,6-dimethylphenyl)amino]carbonyl}amino)-2-naphthalenyl]carbonyl}-N-(2-pyridinylmethyl)glycine] | 3610 |
| Cc1cc(C)c(NC(=O)Nc2cc(Cl)cnc2C(=O)NC2(C(=O)O)CCCCCC2)c(C)c1 [Example 319, 1-({[5-chloro-3-({[(2,4,6-trimethylphenyl)amino]carbonyl}amino)-2-pyridinyl]carbonyl}amino)cycloheptanecarboxylic acid] | 470 |
| Cc1cc(C)c(NC(=O)Nc2cc3ccccc3cc2C(=O)N2CCN(S(C)(=O)=O)C[C@H]2C(=O)O)c(C)c1 [Example 256, (2S)-4-(methylsulfonyl)-1-{[3-({[(2,4,6-trimethylphenyl)amino]carbonyl}amino)-2-naphthalenyl]carbonyl}-2-piperazinecarboxylic acid] | 17400 |

The remaining lines, values ahead:

| IC50 [nM] | Compound |
| --- | --- |
| 24 | Cc1cc(C)c(NC(=O)Nc2cc(-c3cccc(F)c3)ccc2C(=O)N[C@H](C(=O)O)C2CCCCC2)c(C)c1 [Example 234, (2S)-Cyclohexyl({[3′-fluoro-3-({[(2,4,6-trimethylphenyl)amino]carbonyl}amino)-4-biphenylyl]carbonyl}amino)ethanoic acid] |
| 44 | Cc1cc(C)c(NC(=O)Nc2cc3ccccc3cc2C(=O)NC(C(=O)O)C2CCC(NC(=O)OC(C)(C)C)CC2)c(C)c1 (mixture of isomers) [Example 350, (cis and trans)-[4-({[(1,1-dimethylethyl)oxy]carbonyl}amino)cyclohexyl]({[3-({[(2,4,6-trimethylphenyl)amino]carbonyl}amino)-2-naphthalenyl]carbonyl}amino)acetic acid] |
| 14 | O=C(O)C[C@H](NC(=O)c1cc2ccccc2cc1NC(=O)Nc1c(Cl)cc(OC(F)(F)F)cc1Cl)C(=O)O [Example 355, N-[(3-{[({2,6-dichloro-4-[(trifluoromethyl)oxy]phenyl}amino)carbonyl]amino}-2-naphthalenyl)carbonyl]-L-aspartic acid] |
